Experimental data from ChEMBL document CHEMBL1132250, “Synthesis of classical and a nonclassical 2-amino-4-oxo-6-methyl-5-substituted pyrrolo[2,3-d]pyrimidine antifolate inhibitors of thymidylate synthase” (J Med Chem, 1999).

How the values were obtained:
Thymidylate synthase [1] = target: T1, Thymidylate synthase (Homo sapiens, UniProt P04818); test: Compound was evaluated for the inhibition at a given concentration against recombinant human TS
Thymidylate synthase [2] = target: T2, Thymidylate synthase (Lactobacillus casei, UniProt P00469); test: Compound was evaluated for the inhibition at a given concentration against Lactobacillus casei TS; design: species or system Lacticaseibacillus casei
T2 sequence (P00469 whole entry): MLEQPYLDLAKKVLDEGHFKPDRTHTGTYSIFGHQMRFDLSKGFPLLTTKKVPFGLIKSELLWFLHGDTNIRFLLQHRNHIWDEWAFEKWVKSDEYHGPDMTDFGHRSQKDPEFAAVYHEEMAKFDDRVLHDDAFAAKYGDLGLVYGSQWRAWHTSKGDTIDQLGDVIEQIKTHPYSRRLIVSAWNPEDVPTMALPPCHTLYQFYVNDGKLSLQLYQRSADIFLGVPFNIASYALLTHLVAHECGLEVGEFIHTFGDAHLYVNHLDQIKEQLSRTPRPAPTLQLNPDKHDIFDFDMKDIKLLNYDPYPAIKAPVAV

Thymidylate synthase [3] = target: T2, Thymidylate synthase; test: Compound was evaluated for the inhibition at a given concentration against Lactobacillus casei Thymidylate synthase; design: species or system Lacticaseibacillus casei
Thymidylate synthase [4] = target: T1, Thymidylate synthase; test: Compound was evaluated for the inhibition at a given concentration against recombinant human Thymidylate synthase

T1 sequence (P04818 whole entry): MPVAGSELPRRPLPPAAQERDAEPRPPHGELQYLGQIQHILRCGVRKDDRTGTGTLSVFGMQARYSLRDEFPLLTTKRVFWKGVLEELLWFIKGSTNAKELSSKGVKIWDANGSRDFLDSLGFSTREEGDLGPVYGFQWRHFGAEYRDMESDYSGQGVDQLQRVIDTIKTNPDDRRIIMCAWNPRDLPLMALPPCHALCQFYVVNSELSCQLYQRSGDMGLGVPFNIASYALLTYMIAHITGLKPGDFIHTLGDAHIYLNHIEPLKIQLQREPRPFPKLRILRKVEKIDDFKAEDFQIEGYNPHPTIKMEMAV

`Cc1[nH]c2nc(N)nc(O)c2c1CNc1ccc(C(=O)N[C@H](CCC(=O)O)C(=O)O)cc1` was tested, and the IC50 (Thymidylate synthase [1]) was 180 µM and the IC50 (Thymidylate synthase [2]) was 180 µM.
Compound `Cc1[nH]c2nc(N)[nH]c(=O)c2c1Sc1ccc(C(=O)NC(CCC(=O)O)C(=O)O)cc1` (configuration not stated) has an IC50 (Thymidylate synthase [3]) of 0.021 µM.
Work on `C#CCN(Cc1c(C)[nH]c2nc(N)nc(O)c12)c1ccc(C(=O)N[C@H](CCC(=O)O)C(=O)O)cc1` yielded an IC50 (Thymidylate synthase [3]) of 90 µM.
In the case of `Cc1[nH]c2nc(N)nc(O)c2c1CSc1ccncc1`, the IC50 (Thymidylate synthase [4]) is reported as > 25 µM and the IC50 (Thymidylate synthase [3]) is reported as > 26 µM.
`Cc1[nH]c2nc(N)[nH]c(=O)c2c1CNCc1ccc(C(=O)N[C@H](CCC(=O)O)C(=O)O)cc1` was tested, and the IC50 (Thymidylate synthase [3]) was 360 µM.
